Results taken from US12605382B2, “Pharmaceutical composition for preventing, alleviating, or treating cancer containing 2,6-dichloro-4-(4-(4-hydroxycyclohexylamino)-7H- pyrrolo[2,3-d]pyrimidin-5-yl)phenol as active ingredient” (JBKLAB CO., LTD., priority 2021, dated 2026).

How the values were obtained:
OVCAR-3 = assay: Cell viability alone and in combination with cisplatin; format: cell-based, Human; details: 1 μM alone
Procedure: (§1) Human ovarian cancer cell lines (SKOV-3 and OVCAR-3) were treated with control (no treatment), 0.1 μM of the compound of Example 1, 1 μM of cisplatin, and 0.1 μM of the compound of Example 1/1 μM of cisplatin, and the cell viability of SKOV-3 and OVCAR-3 was confirmed.

SKOV-3 = assay: as above; format: cell-based, Human; details: 1 μM alone
Procedure: as §1

HepG2 [1] = assay: Clonogenic assay; format: cell-based; details: 2.5 and 5 μM, 10 days
Procedure: (§2) HepG2 and Hep3B were each seeded in 12-well plates at the density of 3×10^3 cells/well and cultured for 24 hours. Then, Sorafenib and the compound of Example 1 were treated thereto at 2.5 and 5 μM each and cultured for 10 days. Upon completion of the culture, the cells were washed with PBS, fixed with 37% formaldehyde, and stained with 0.01% crystal violet. After staining, the cells were washed with distilled water and the colonies of stained cells were photographed.

Hep3B [2] = assay: Clonogenic assay; format: cell-based; details: 2.5 and 5 μM, 10 days
Procedure: as §2

HepG2 [3] = assay: WST-8 cell viability assay, hepatocellular carcinoma cell line; format: cell-based; details: 24, 48 and 72 hours
Procedure: (§3) Specifically, the WST-8 assay to check the cell viability of HepG2 and Hep3B, which are hepatocellular carcinoma cell lines shown in FIGS. 7A-7C and 8A-8C, was performed as follows. HepG2 and Hep3B were each seeded in 96-well plates at the density of 5×10^3 cells/well and cultured for 24 hours. Then, Sorafenib and OPT-0139 were diluted stepwise at a twofold concentration and then treated to the plates at different concentrations, followed by culture for 24, 48, and 72 hours. […] of WST-8 solution was added to each well of the plate, and the absorbance was measured with a microplate reader using a 450 nm optical filter to measure the formazan produced by the reducing factors in living cells.
(§4) Therefore, the number of living cells could be measured by measuring absorbance.

Hep3B [4] = assay: as above; format: cell-based; details: 24, 48 and 72 hours
Procedure: as §3, §4

Huh-7 = assay: Cell viability alone and in combination with sorafenib; format: cell-based, Human; details: 1 μM alone
Procedure: (§5) Human liver cancer cell lines (SK Hep1 and Huh-7) were treated with control (no treatment), 0.1 μM of the compound of Example 1, 1 μM of sorafenib, and 0.1 μM of the compound of Example 1/1 μM of sorafenib, and the cell viability of SK Hep1 and Huh-7 was confirmed.

SK Hep1 = assay: as above; format: cell-based, Human; details: 1 μM alone
Procedure: as §5

With `N.N.[Cl][Pt][Cl]` [cisplatin, reference compound] as the molecule, how does the cell viability (OVCAR-3) read?
Its cell viability is “suppressed”.

What about the cell viability (SKOV-3) of the same molecule?
The cell viability was “suppressed”.

`CNC(=O)c1cc(Oc2ccc(NC(=O)Nc3ccc(Cl)c(C(F)(F)F)c3)cc2)ccn1` [Sorafenib, reference compound] was tested. Which “number of colonies, treated vs not treated” value (HepG2 [1]) did it give?
Its value is “clear difference in the number of colonies”.

What about the “number of colonies, treated vs not treated” value (Hep3B [2]) of the same molecule?
Its value is “clear difference in the number of colonies”.

What about the cell viability (HepG2 [3]) of the same molecule?
The cell viability was “decreased the cell viability dose and time dependently”.

What about the cell viability (Hep3B [4]) of the same molecule?
The cell viability was “decreased the cell viability dose and time dependently”.

And the cell viability (Huh-7)?
Its cell viability is “suppressed”.

What about the cell viability (SK Hep1) of the same molecule?
The cell viability was “suppressed”.
